Read-outs that look alike come from different tables or passages of the source.
How the values were obtained:
[1] = test system: Key Broadleaf Weed and Crop Species; assay: Post-emergent Test II herbicidal activity (Table 15); assay type: in vivo; conditions: post-emergence, 336 h, 14 d; for pest or weed control at 35 g/ha: 35 g ai/ha; for pest or weed control at 70 g/ha: 70 g ai/ha; for pest or weed control at 140 g/ha: 140 g ai/ha
Method in brief: (§1)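 Plants grown in greenhouse (~15 h photoperiod, 23-29 °C day, 22-28 °C night) to first or second true leaf stage, then sprayed post-emergence at 187 L/ha with a high rate and 1/2×, 1/4×, 1/8× and 1/16× dilutions. Injury scored visually after 14 d, 0-100% versus untreated plants.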

[2] = test system: Key Grass and Sedge Weeds as well as Grass Crops; assay: Post-emergent Test II herbicidal activity (Table 16); assay type: in vivo; conditions: post-emergence, 336 h, 14 days after application; for pest or weed control at 35 g/ha: 35 g ai/ha; for pest or weed control at 70 g/ha: 70 g ai/ha; for pest or weed control at 140 g/ha: 140 g ai/ha
Method in brief: as §1

[3] = Abutilon theophrasti, velvetleaf (Abutilon theophrasti), read-out: Visual Growth Reduction (%) 14 Days After Application, ABUTH
[4] = Amaranthus retroflexus, redroot pigweed (Amaranthus retroflexus), read-out: Visual Growth Reduction (%) 14 Days After Application, AMARE
[5] = Brassica napus, oilseed rape, canola (Brassica napus), read-out: Visual Growth Reduction (%) 14 Days After Application, BRSNN
[6] = Chenopodium album, lambsquarters (Chenopodium album), read-out: Visual Growth Reduction (%) 14 Days After Application, CHEAL
[7] = Euphorbia heterophylla, wild poinsettia (Euphorbia heterophylla), read-out: Visual Growth Reduction (%) 14 Days After Application, EPHHL
[8] = Helianthus annuus, sunflower (Helianthus annuus), read-out: Visual Growth Reduction (%) 14 Days After Application, HELAN
[9] = Cyperus esculentus, yellow nutsedge (Cyperus esculentus), read-out: Visual Growth Reduction (%) 14 Days After Application CYPES
[10] = Echinochloa crus-galli, barnyardgrass (Echinochloa crus-galli), read-out: Visual Growth Reduction (%) 14 Days After Application ECHCG
[11] = Oryza sativa, rice (Oryza sativa), read-out: Visual Growth Reduction (%) 14 Days After Application ORYSA
[12] = Setaria faberi, giant foxtail (Setaria faberi), read-out: Visual Growth Reduction (%) 14 Days After Application SETFA
[13] = Triticum aestivum, wheat, spring (Triticum aestivum), read-out: Visual Growth Reduction (%) 14 Days After Application TRZAS
[14] = Zea mays, maize, corn (Zea mays), read-out: Visual Growth Reduction (%) 14 Days After Application ZEAMX

Row | Compound | pest or weed control at 35 g/ha [1, 3] [%] | pest or weed control at 70 g/ha [1, 3] [%] | pest or weed control at 140 g/ha [1, 3] [%] | pest or weed control at 35 g/ha [1, 5] [%] | pest or weed control at 70 g/ha [1, 5] [%] | pest or weed control at 140 g/ha [1, 5] [%] | pest or weed control at 35 g/ha [1, 6] [%] | pest or weed control at 70 g/ha [1, 6] [%] | pest or weed control at 140 g/ha [1, 6] [%] | pest or weed control at 35 g/ha [1, 7] [%] | pest or weed control at 70 g/ha [1, 7] [%] | pest or weed control at 140 g/ha [1, 7] [%] | pest or weed control at 35 g/ha [1, 8] [%] | pest or weed control at 70 g/ha [1, 8] [%] | pest or weed control at 140 g/ha [1, 8] [%] | pest or weed control at 35 g/ha [2, 9] [%] | pest or weed control at 70 g/ha [2, 9] [%] | pest or weed control at 140 g/ha [2, 9] [%] | pest or weed control at 35 g/ha [2, 10] [%] | pest or weed control at 70 g/ha [2, 10] [%] | other results
1 | COC(=O)c1nc(-c2ccc3ccsc3c2)c(C)c(N)c1Cl [Compound 3.18] | 60 to 74 | 75 to 84 | 75 to 84 | 0 to 29 | 0 to 29 | 0 to 29 | 30 to 44 | 60 to 74 | 60 to 74 | 45 to 59 | 0 to 29 | 30 to 44 | 95 to 100 | 95 to 100 | 95 to 100 | 0 to 29 | 0 to 29 | 0 to 29 | 0 to 29 | 0 to 29 | pest or weed control at 35 g/ha [1, 4]: 60 to 74%; pest or weed control at 70 g/ha [1, 4]: 75 to 84%; pest or weed control at 140 g/ha [1, 4]: 95 to 100%; pest or weed control at 140 g/ha [2, 10]: 0 to 29%; pest or weed control at 35 g/ha [2, 11]: 0 to 29%; pest or weed control at 70 g/ha [2, 11]: 0 to 29%; pest or weed control at 140 g/ha [2, 11]: 0 to 29%; pest or weed control at 35 g/ha [2, 12]: 0 to 29%; pest or weed control at 70 g/ha [2, 12]: 0 to 29%; pest or weed control at 140 g/ha [2, 12]: 0 to 29%; pest or weed control at 35 g/ha [2, 13]: 0 to 29%; pest or weed control at 70 g/ha [2, 13]: 0 to 29%; pest or weed control at 140 g/ha [2, 13]: 0 to 29%; pest or weed control at 35 g/ha [2, 14]: 0 to 29%; pest or weed control at 70 g/ha [2, 14]: 0 to 29%; pest or weed control at 140 g/ha [2, 14]: 0 to 29%; melting point: 143 to 146 °C
2 | Nc1c(Cl)c(C(=O)O)nc(-c2ccc3ccsc3c2)c1Cl [Compound 3.11] | 0 to 29 | 0 to 29 | 0 to 29 | 0 to 29 | 0 to 29 | 0 to 29 | 85 to 94 | 85 to 94 | 85 to 94 | 0 to 29 | 0 to 29 | 0 to 29 | 85 to 94 | 85 to 94 | 85 to 94 | 0 to 29 | 0 to 29 | 0 to 29 | 0 to 29 | 0 to 29 | pest or weed control at 140 g/ha [2, 10]: 0 to 29%; pest or weed control at 35 g/ha [2, 11]: 0 to 29%; pest or weed control at 70 g/ha [2, 11]: 0 to 29%; pest or weed control at 140 g/ha [2, 11]: 0 to 29%; pest or weed control at 35 g/ha [2, 12]: 0 to 29%; pest or weed control at 70 g/ha [2, 12]: 0 to 29%; pest or weed control at 140 g/ha [2, 12]: 0 to 29%; pest or weed control at 35 g/ha [2, 13]: 0 to 29%; pest or weed control at 70 g/ha [2, 13]: 0 to 29%; pest or weed control at 140 g/ha [2, 13]: 0 to 29%; pest or weed control at 35 g/ha [2, 14]: 0 to 29%; pest or weed control at 70 g/ha [2, 14]: 0 to 29%; pest or weed control at 140 g/ha [2, 14]: 0 to 29%; melting point: 239 °C (dec.)
